SMILES strings stand for the structures. A value given as a limit tells only on which side of the number the result lay.

The target of one experiment is WDR5 (Homo sapiens, UniProt P61964). Nature of the experiment: TR-FRET competition binding assay, displacement of 10mer-Thr-FAM MLL peptide probe from His-tagged WDR5. Particulars: WDR5-His tag (residues 24-334) 2 nM; 10mer-Thr-FAM 150 nM; 60 min, room temperature; read-out: Ki for Inhibition of WDR5 by TR-FRET assay. The procedure: Time Resolved-Fluorescence Energy Transfer Competition Assay […] Excess 10mer-Thr-FAM probe was utilized with His-tagged WDR5 in conjunction with a commercial anti-His antibody containing a Terbium label. The LanthaScreenTM Elite Tb-anti-HIS Antibody from ThermoFisher Scientific was used for this purpose. […] The 10mer-Thr-FAM probe when bound to WDR5 will undergo a FRET interaction with the Tb-anti-HIS and emit at 520 nm. […] WDR[…] 10[…] used at 150 nM. […] A source plate is prepared using an Echo Liquid Handler, which distributes the compounds to the assay plate (white, flat-bottom; OptiPlate) in a 10-point, 5-fold dilution schemes with a top concentration of 5 μM, in a final volume of 20 μL. […] The final DMSO concentration in each well of the assay plate is 1% or lower. The plate is covered, shielded from light, and incubated for 60 minutes at room temperature with rocking. 10mer-Thr-FAM and Anti-His terbium antibody fluorescence is then measured on a Biotek Cytation 3 at excitation wavelength of 340 nm, and emission wavelengths of 495 nm and 520 nm. […] TR-FRET signal is plotted and IC50 and Ki values are calculated according to the formula of Wang Z. FEBS Lett (1996) 3, 245. Ki=[I]50/([L]50/Kd+[P]0/Kd+1) where [I]50 is the concentration of the free inhibitor at 50% inhibition, [L]50 is the concentration of the free labeled ligand at 50% inhibition, [P]0 is the concentration of the free protein at 0% inhibition, Kd represents the dissociation constant of the FITC-MLL or 10mer-Thr-FAM probe for WDR5. Total fluorescence is also measured, to rule out compounds that are inherently fluorescent or able to act as quenchers in the assay. TR-FRET Binding Assay
A general note: Time-resolved FRET reads energy transfer from a long-lived donor to a nearby acceptor.

The subject of experiment [1] is MV4:11 human cancer cell lines. The experiment in a line: Cellular viability / anti-proliferative assay, CellTiter-Glo, 5 day protocol. In kind it is cell-based. Particulars: Homo sapiens, MV4-11, 120 h, MV4:11 cells; 5 day incubation; CellTiter-Glo; mean of at least two replicates; read-out: GI50 on cellular proliferation of MV4:11 human cancer cell lines. The gist of the method:
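Luminescent ATP-based viability (CellTiter-Glo) after a 5-day exposure gave GI50 via sigmoidal fitting, averaged over two or more replicates. Compounds spanned 22 two-fold steps down from 30 μM at 0.3% DMSO, on 200 MV-4-11 cells per well grown in IMDM plus 10% FBS.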
In general terms: ATP-based viability assays read luminescence as a measure of living cells.

For `Cc1cc2c(N3CCc4c(cc(Cn5ccnc5)cc4-c4cn(C)nc4C(F)(F)F)C3=O)ccnc2n1C` [Example 28, 7-((1H-Imidazol-1-yl)methyl)-2-(1,2-dimethyl-1H-pyrrolo[2,3-b]pyridin-4-yl)-5-(1-methyl-3-(trifluoromethyl)-1H-pyrazol-4-yl)-3,4-dihydroisoquinolin-1(2H)-one], the inhibition constant Ki at WDR5 was 0.032 nM. In addition, in experiment [1], the GI50 came out at 281 nM.
Turning to `COc1cc(Br)c2nccc(N3CCc4c(cc(Cn5ccnc5)cc4-c4cn(C)nc4C(F)(F)F)C3=O)c2c1` [Example 29, 7-((1H-Imidazol-1-yl)methyl)-2-(8-bromo-6-methoxyquinolin-4-yl)-5-(1-methyl-3-(trifluoromethyl)-1H-pyrazol-4-yl)-3,4-dihydroisoquinolin-1(2H)-one], at WDR5, the Ki was below 0.02 nM. Also, in experiment [1], the GI50 stood at 65 nM.
With `COc1cc(N2CCOCC2)c2nccc(N3CCc4c(cc(Cn5ccnc5)cc4-c4cn(C)nc4C(F)(F)F)C3=O)c2c1` [Example 30, 7-((1H-Imidazol-1-yl)methyl)-2-(6-methoxy-8-morpholinoquinolin-4-yl)-5-(1-methyl-3-(trifluoromethyl)-1H-pyrazol-4-yl)-3,4-dihydroisoquinolin-1(2H)-one], the Ki on WDR5 is below 0.02 nM. Moreover, the GI50 in experiment [1] is below 20 nM.
Turning to `COc1cc(N2CCN(C)CC2)c2nccc(N3CCc4c(cc(Cn5ccnc5)cc4-c4cn(C)nc4C(F)(F)F)C3=O)c2c1` [Example 31, 7-((1H-Imidazol-1-yl)methyl)-2-(6-methoxy-8-(4-methylpiperazin-1-yl)quinolin-4-yl)-5-(1-methyl-3-(trifluoromethyl)-1H-pyrazol-4-yl)-3,4-dihydroisoquinolin-1(2H)-one], the Ki at WDR5 is below 0.02 nM. Moreover, the GI50 in experiment [1] is below 20 nM.
Turning to `CCc1cc(N(C)C)c2nccc(N3CCc4c(cc(Cn5ccnc5)cc4-c4cn(C)nc4C(F)(F)F)C3=O)c2c1` [Example 35, 7-((1H-Imidazol-1-yl)methyl)-2-(8-(dimethylamino)-6-ethylquinolin-4-yl)-5-(1-methyl-3-(trifluoromethyl)-1H-pyrazol-4-yl)-3,4-dihydroisoquinolin-1(2H)-one], at WDR5, the Ki is below 0.02 nM. Also, the GI50 in experiment [1] was 76 nM.
For `CCc1cc(N2CCOCC2)c2nccc(N3CCc4c(cc(Cn5ccnc5)cc4-c4cn(C)nc4C(F)(F)F)C3=O)c2c1` [Example 36, 7-((1H-Imidazol-1-yl)methyl)-2-(6-ethyl-8-morpholinoquinolin-4-yl)-5-(1-methyl-3-(trifluoromethyl)-1H-pyrazol-4-yl)-3,4-dihydroisoquinolin-1(2H)-one], at WDR5, the Ki is below 0.02 nM. Further, the GI50 in experiment [1] was 23 nM.
Consider `CCc1cc(N2CCN(C)CC2)c2nccc(N3CCc4c(cc(Cn5ccnc5)cc4-c4cn(C)nc4C(F)(F)F)C3=O)c2c1` [Example 37, 7-((1H-Imidazol-1-yl)methyl)-2-(6-ethyl-8-(4-methylpiperazin-1-yl)quinolin-4-yl)-5-(1-methyl-3-(trifluoromethyl)-1H-pyrazol-4-yl)-3,4-dihydroisoquinolin-1(2H)-one], for which, on WDR5, the Ki is below 0.02 nM. In addition, the GI50 in experiment [1] is below 20 nM.
On the same counts, the results for `CCc1cc(N(C)CCN(C)C)c2nccc(N3CCc4c(cc(Cn5ccnc5)cc4-c4cn(C)nc4C(F)(F)F)C3=O)c2c1` [Example 38, 7-((1H-Imidazol-1-yl)methyl)-2-(8-((2-(dimethylamino)ethyl)(methyl)amino)-6-ethylquinolin-4-yl)-5-(1-methyl-3-(trifluoromethyl)-1H-pyrazol-4-yl)-3,4-dihydroisoquinolin-1(2H)-one] are below 0.02 nM and 31 nM.
For the molecule `CNC(=O)c1cc(OC)cc2c(N3CCc4c(cc(Cn5ccnc5)cc4-c4cn(C)nc4C(F)(F)F)C3=O)ccnc12` [Example 42, 4-(7-((1H-Imidazol-1-yl)methyl)-5-(1-methyl-3-(trifluoromethyl)-1H-pyrazol-4-yl)-1-oxo-3,4-dihydroisoquinolin-2(1H)-yl)-6-methoxy-N-methylquinoline-8-carboxamide], the Ki on WDR5 is below 0.02 nM. Also, the GI50 in experiment [1] was found to be 20 nM.
In the case of `COc1cc(C(=O)N2CCCC2)c2nccc(N3CCc4c(cc(Cn5ccnc5)cc4-c4cn(C)nc4C(F)(F)F)C3=O)c2c1` [Example 44, 7-((1H-Imidazol-1-yl)methyl)-2-(6-methoxy-8-(pyrrolidine-1-carbonyl)quinolin-4-yl)-5-(1-methyl-3-(trifluoromethyl)-1H-pyrazol-4-yl)-3,4-dihydroisoquinolin-1(2H)-one], the Ki at WDR5 is below 0.02 nM. In addition, the GI50 in experiment [1] came to 353 nM.
As to `COCCNC(=O)c1cc(OC)cc2c(N3CCc4c(cc(Cn5ccnc5)cc4-c4cn(C)nc4C(F)(F)F)C3=O)ccnc12` [Example 49, 4-(7-((1H-Imidazol-1-yl)methyl)-5-(1-methyl-3-(trifluoromethyl)-1H-pyrazol-4-yl)-1-oxo-3,4-dihydroisoquinolin-2(1H)-yl)-6-methoxy-N-(2-methoxyethyl)quinoline-8-carboxamide], the Ki on WDR5 is below 0.02 nM. Besides, in experiment [1], the GI50 stood at 34 nM.
As to `CCn1cc(-c2cc(Cn3ccnc3C)cc3c2CCN(c2cccc4ncc(OC)cc24)C3=O)c(C(F)(F)F)n1` [Example 50, 5-(1-Ethyl-3-(trifluoromethyl)-1H-pyrazol-4-yl)-2-(3-methoxyquinolin-5-yl)-7-((2-methyl-1H-imidazol-1-yl)methyl)-3,4-dihydroisoquinolin-1(2H)-one], the inhibitory constant (Ki) at WDR5 was below 0.02 nM. The GI50 in experiment [1] was found to be 22 nM.
`CCn1cc(-c2cc(Cn3ccnc3C)cc3c2CCN(c2cc(C)nc4ccc(OC)cc24)C3=O)c(C(F)(F)F)n1` [Example 51, 5-(1-Ethyl-3-(trifluoromethyl)-1H-pyrazol-4-yl)-2-(6-methoxy-2-methylquinolin-4-yl)-7-((2-methyl-1H-imidazol-1-yl)methyl)-3,4-dihydroisoquinolin-1(2H)-one]: the Ki on WDR5 is below 0.02 nM. In addition, the GI50 in experiment [1] was below 20 nM.
`CCn1cc(-c2cc(Cn3ccnc3)cc3c2CCN(c2cccc4ncc(OC)cc24)C3=O)c(C(F)(F)F)n1` [Example 52, 7-((1H-Imidazol-1-yl)methyl)-5-(1-ethyl-3-(trifluoromethyl)-1H-pyrazol-4-yl)-2-(3-methoxyquinolin-5-yl)-3,4-dihydroisoquinolin-1(2H)-one]: on WDR5, the Ki was 0.028 nM. Also, in experiment [1], the GI50 was determined as 62 nM.
Turning to `CCn1cc(-c2cc(Cn3ccnc3)cc3c2CCN(c2cc(C)nc4ccc(OC)cc24)C3=O)c(C(F)(F)F)n1` [Example 53, 7-((1H-Imidazol-1-yl)methyl)-5-(1-ethyl-3-(trifluoromethyl)-1H-pyrazol-4-yl)-2-(6-methoxy-2-methylquinolin-4-yl)-3,4-dihydroisoquinolin-1(2H)-one], the Ki on WDR5 is below 0.02 nM. The GI50 in experiment [1] turned out to be 59 nM.
As for `CCn1cc(-c2cc(Cn3ccnc3)cc3c2CCN(c2cncc4ccc(C)cc24)C3=O)c(C(F)(F)F)n1` [Example 54, 7-((1H-Imidazol-1-yl)methyl)-5-(1-ethyl-3-(trifluoromethyl)-1H-pyrazol-4-yl)-6′-methyl-3,4-dihydro-1H-[2,4′-biisoquinolin]-1-one], on WDR5, the Ki amounted to 0.028 nM. In addition, the GI50 in experiment [1] turned out to be 71 nM.
The like results for `Cc1ccc2cncc(N3CCc4c(cc(Cc5cnc[nH]5)cc4-c4cn(C)nc4C(F)(F)F)C3=O)c2c1` [Example 55, 7-((1H-imidazol-5-yl)methyl)-6′-methyl-5-(1-methyl-3-(trifluoromethyl)-1H-pyrazol-4-yl)-3,4-dihydro-1H-[2,4′-biisoquinolin]-1-one] were, in that order, below 0.02 nM and 59 nM.
Take `Cc1ccc2cncc(N3CCc4c(cc(Cc5ncc[nH]5)cc4-c4cn(C)nc4C(F)(F)F)C3=O)c2c1` [Example 56, 7-((1H-Imidazol-2-yl)methyl)-6′-methyl-5-(1-methyl-3-(trifluoromethyl)-1H-pyrazol-4-yl)-3,4-dihydro-1H-[2,4′-biisoquinolin]-1-one]: the inhibition constant Ki on WDR5 turned out to be 0.031 nM. For the same molecule, in experiment [1], the GI50 is 97 nM.
As to `Cc1ccc2cncc(N3CCc4c(cc(C(O)c5cn(C)cn5)cc4-c4cn(C)nc4C(F)(F)F)C3=O)c2c1` (centres unmarked) [Example 57, 7-(Hydroxy(1-methyl-1H-imidazol-4-yl)methyl)-6′-methyl-5-(1-methyl-3-(trifluoromethyl)-1H-pyrazol-4-yl)-3,4-dihydro-1H-[2,4′-biisoquinolin]-1-one], the Ki on WDR5 was determined as 27 nM. Besides, in experiment [1], the GI50 was found to be 29000 nM.

For orientation: Ki means a measure of affinity in units of concentration, obtained from inhibition or displacement.

The values above are taken from US12692249B2, “WDR5 inhibitors and modulators” (Vanderbilt University, priority 2019, dated 2026).
